Data taken from patent publication US6545002B1 (University of Virginia Patent Foundation, priority 1999, dated 2003).
Like-named read-outs stand apart in the source and are kept apart here.

Tests used:
human A3 receptors (hA3) [1] = biological target: T1, human A3 receptors (hA3) (Homo sapiens, UniProt P0DMS8); test: Displacement of [125I]AB-MECA binding at human A3 receptors expressed in HEK-293 cells (Table 4)
T1 construct: expressed in transfected cells; host or cells: HEK-293
T1 sequence (P0DMS8 1-318): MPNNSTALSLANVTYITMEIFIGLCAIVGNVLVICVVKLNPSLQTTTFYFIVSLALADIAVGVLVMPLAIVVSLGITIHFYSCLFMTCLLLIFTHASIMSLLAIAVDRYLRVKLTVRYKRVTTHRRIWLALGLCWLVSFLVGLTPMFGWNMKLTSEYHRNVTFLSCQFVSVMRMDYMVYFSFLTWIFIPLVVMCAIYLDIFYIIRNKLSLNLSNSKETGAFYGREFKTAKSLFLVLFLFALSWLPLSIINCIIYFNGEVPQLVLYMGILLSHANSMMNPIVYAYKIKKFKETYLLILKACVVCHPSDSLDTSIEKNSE

rat A2A receptors (rA2A) = biological target: T2, rat A2A receptors (rA2A) (Rattus norvegicus, UniProt P30543); test: Displacement of [3H]CGS 21680 binding in rat striatal membranes; conditions: Table 4; read-out: rA2A Ki
T2 construct: to A2A receptors from rat striatal membranes was performed as described; from tissue; host or cells: rat striatal membranes
T2 sequence (P30543 whole entry): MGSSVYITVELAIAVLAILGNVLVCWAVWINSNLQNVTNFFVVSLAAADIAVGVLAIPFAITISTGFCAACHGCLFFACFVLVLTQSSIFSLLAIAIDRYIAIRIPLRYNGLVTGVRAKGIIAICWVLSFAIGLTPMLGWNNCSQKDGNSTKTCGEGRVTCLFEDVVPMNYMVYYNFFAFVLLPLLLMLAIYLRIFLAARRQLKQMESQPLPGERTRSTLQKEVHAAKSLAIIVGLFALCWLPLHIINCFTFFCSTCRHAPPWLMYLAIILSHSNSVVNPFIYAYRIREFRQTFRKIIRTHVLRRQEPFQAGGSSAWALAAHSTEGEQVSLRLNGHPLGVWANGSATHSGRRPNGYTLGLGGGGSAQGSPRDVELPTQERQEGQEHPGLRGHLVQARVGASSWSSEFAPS
Experimental: (§1) Bruns, R. F. et al., Naunyn-Schmiedeberg's Arch. […] Binding of [^3H]R-N^6-phenylisopropyladenosine. Schwabe, U. et al., Naunyn-Schmiedeberg's Arch. […] (Dupont NEN, Boston, Mass.) to A2A receptors from rat striatal membranes was performed as described. […] All non-radioactive compounds were initially dissolved in DMSO, and diluted with buffer to the final concentration, where the amount of DMSO never exceeded 2%. Incubations were terminated by rapid filtration over Whatman GF/B filters, using a Brandell cell harvester (Brandell, Gaithersburg, Md.). The tubes were rinsed three times with 3 mL buffer each.
(§2) At least six different concentrations of competitor, spanning 3 orders of magnitude adjusted appropriately for the IC50 of each compound, were used. IC50 values, calculated with the nonlinear regression method implemented in (Graph-Pad Prism, San Diego, Calif.), were converted to apparent Ki values as described. Linden, J., J. Cycl. Nucl.

[2] = biological target: T3, human A2B receptors (hA2B) (Homo sapiens, UniProt P29275); test: Radioligand binding ([125I]ABOPX / [3H]ZM241385) at human A2B receptors expressed in HEK-293 cells
T3 construct: expressed in transfected cells; host or cells: HEK-293 (HEK-A2B, G418-selected)
T3 sequence (P29275 1-332): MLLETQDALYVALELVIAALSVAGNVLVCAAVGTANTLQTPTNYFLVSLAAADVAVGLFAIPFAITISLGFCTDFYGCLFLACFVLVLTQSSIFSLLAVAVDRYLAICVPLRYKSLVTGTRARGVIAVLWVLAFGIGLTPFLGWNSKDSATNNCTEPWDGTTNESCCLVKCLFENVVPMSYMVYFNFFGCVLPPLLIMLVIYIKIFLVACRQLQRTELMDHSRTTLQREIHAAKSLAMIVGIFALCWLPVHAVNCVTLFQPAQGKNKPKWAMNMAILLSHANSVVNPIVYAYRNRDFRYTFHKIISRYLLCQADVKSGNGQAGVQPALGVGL

rat A1 receptors (rA1) = biological target: T4, rat A1 receptors (rA1) (Rattus norvegicus, UniProt P25099); test: Displacement of [3H]R-PIA binding in rat brain (cerebral cortical) membranes; conditions: Table 4; read-out: rA1 Ki
T4 construct: to A1 receptors from rat cerebral cortical membranes; from tissue; host or cells: rat cerebral cortical (brain) membranes
T4 sequence (P25099 1-326): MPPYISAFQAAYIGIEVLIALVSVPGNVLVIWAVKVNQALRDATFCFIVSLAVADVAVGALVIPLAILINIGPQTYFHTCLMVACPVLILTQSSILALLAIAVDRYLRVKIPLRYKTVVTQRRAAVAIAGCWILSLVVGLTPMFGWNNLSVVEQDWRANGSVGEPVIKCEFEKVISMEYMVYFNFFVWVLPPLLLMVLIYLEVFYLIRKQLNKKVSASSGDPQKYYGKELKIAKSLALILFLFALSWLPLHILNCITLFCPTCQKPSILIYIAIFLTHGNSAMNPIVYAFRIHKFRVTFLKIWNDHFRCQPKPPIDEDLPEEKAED
Experimental: as §1, §2

[3] = biological target: T5, recombinant human A1 receptors (hA1) (Homo sapiens, UniProt P30542); test: Radioligand binding ([3H]CPX) at recombinant human A1 receptors in HEK-293 cells; conditions: read-out: hA1 Ki, values marked (h)^a; Table 4; vs [3H]CPX, HEK-293
T5 sequence (P30542 1-326): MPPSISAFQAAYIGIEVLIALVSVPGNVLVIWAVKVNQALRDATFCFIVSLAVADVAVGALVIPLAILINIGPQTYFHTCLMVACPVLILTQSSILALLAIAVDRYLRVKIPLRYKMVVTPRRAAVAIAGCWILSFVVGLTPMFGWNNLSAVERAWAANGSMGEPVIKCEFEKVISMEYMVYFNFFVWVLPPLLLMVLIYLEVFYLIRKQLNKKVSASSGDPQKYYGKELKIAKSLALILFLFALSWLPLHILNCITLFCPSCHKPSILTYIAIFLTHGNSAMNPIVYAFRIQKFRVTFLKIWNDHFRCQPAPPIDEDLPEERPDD

[4] = biological target: recombinant human A2A receptors (hA2A) (Homo sapiens, UniProt P29274); test: Radioligand binding (125I-ZM241385) at recombinant human A2A receptors in HEK-293 cells; conditions: read-out: hA2A Ki, values marked (h); Table 1; recombinant human A2A, HEK 293
Sequence of recombinant human A2A receptors (hA2A) (P29274 whole entry): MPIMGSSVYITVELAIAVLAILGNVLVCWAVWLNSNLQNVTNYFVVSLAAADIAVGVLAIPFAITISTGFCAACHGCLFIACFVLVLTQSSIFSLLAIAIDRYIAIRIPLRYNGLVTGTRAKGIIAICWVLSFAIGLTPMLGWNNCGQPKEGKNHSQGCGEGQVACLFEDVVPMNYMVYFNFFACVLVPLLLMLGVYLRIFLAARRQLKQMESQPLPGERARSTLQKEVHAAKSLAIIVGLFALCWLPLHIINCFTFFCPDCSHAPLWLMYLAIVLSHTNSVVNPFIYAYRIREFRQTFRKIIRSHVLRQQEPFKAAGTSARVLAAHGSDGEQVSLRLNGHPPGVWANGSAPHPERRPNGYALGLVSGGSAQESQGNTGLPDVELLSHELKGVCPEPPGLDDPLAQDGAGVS
Experimental: The potency of the xanthine derivatives at human A2B receptors was evaluated using two binding assays. […] In order to determine selectivity, the xanthines were evaluated using standard binding assays at A1, A2A, and A3 receptors.

human A3 receptors (hA3) [5] = biological target: T1, human A3 receptors (hA3); test: Displacement of [125I]ABA binding at human A3 receptors expressed in HEK-293 cells; conditions: Table 4; footnote a: [125I]ABA; read-out: hA3 Ki (value marked ^a)
[6] = Table 4, unmarked value, first of two binding assays, read-out: hA2B Ki

Ki (human A3 receptors (hA3) [1])	Ki (rat A2A receptors (rA2A))	rA1/hA2B ([2]; Table 4, Ki ratio)	Ki [2, 6]	Ki (rat A1 receptors (rA1))	Ki [3]	melting point	selectivity for human A2B versus human A1 receptors [2]	selectivity for human A2B versus human A2A receptors [2]	selectivity for human A2B versus human A3 receptors [2]	hA1/hA2B ([2]; Table 1, Ki ratio)	hA2A/hA2B ([2]; Table 1, Ki ratio)	hA3/hA2B ([2]; Table 1, Ki ratio)	Ki ([2]; Table 1, [125I]ABOPX, HEK-293, read-out: hA2B Ki or IC50)	Ki ([2]; Table 4, footnote a: [125I]-ABOPX, read-out: hA2B Ki (value marked ^a) (converted))	Ki ([2]; read-out: Ki value at human A2B receptors)	Ki [4]	Ki (human A3 receptors (hA3) [5])	Structure (SMILES)
151 ± 99 nM	21.4 ± 6.1 nM	1.0	3.86 ± 0.7 nM	3.87 ± 1.2 nM	–	–	–	–	–	–	–	–	–	–	–	–	–	CCCn1c(=O)c2[nH]c(-c3ccc(OCC(=O)NN4C(=O)CCC(c5ccccc5)C4=O)cc3)nc2n(CCC)c1=O (centres unmarked) [Compound 45, 8-[4-[(Carboxymethyl)oxy]phenyl]-1,3-di-(n-propyl)xanthine N,N-[(2-Phenyl)glutaryl]hydrazide]
551 ± 106 nM	1230 ± 270 nM	1.4	144 ± 11 nM	203 ± 41 nM	–	–	–	–	–	–	–	–	–	–	–	–	–	CCCn1c(=O)c2[nH]c(-c3ccc(OCC(=O)NN4C(=O)C=C(C)C4=O)cc3)nc2n(CCC)c1=O [Compound 46, 8-[4-[(Carboxymethyl)oxy]phenyl]-1,3-di-(n-propyl)xanthine N,N-Citraconylhydrazide]
–	126 ± 41 nM	0.57	19.4 ± 6.2 nM	11.1 ± 2.4 nM	3030 nM	> 310 °C	160 fold	100 fold	35 fold	110	74	25	26.6 ± 4 nM	33.8 nM	19 nM	1970 nM	670 ± 154 nM	CCCn1c(=O)c2[nH]c(-c3ccc(OCC(=O)NN4C(=O)C(C)=C(C)C4=O)cc3)nc2n(CCC)c1=O [Compound 47, 8-[4-[(Carboxymethyl)oxy]phenyl]-1,3-di-(n-propyl)xanthine N,N-[(1,2-Dimethyl)maleyl]hydrazide]
748 ± 234 nM	1540 ± 280 nM	3.4	66.7 ± 37 nM	225 ± 76 nM	–	–	–	–	–	–	–	–	–	–	–	–	–	CCCn1c(=O)c2[nH]c(-c3ccc(OCC(=O)NN4C(=O)C=C(c5ccccc5)C4=O)cc3)nc2n(CCC)c1=O [Compound 49, 8-[4-[(Carboxymethyl)oxy]phenyl]-1,3-di-(n-propyl)xanthine N,N-[(2-Phenyl)maleyl]hydrazide]
3450 ± 1470 nM	2100 ± 630 nM	3.4	27.9 ± 8.5 nM	95.8 ± 25.1 nM	–	–	–	–	–	–	–	–	–	–	–	–	–	CCCn1c(=O)c2[nH]c(-c3ccc(OCC(=O)NN4C(=O)C(c5ccccc5)=C(c5ccccc5)C4=O)cc3)nc2n(CCC)c1=O [Compound 50, 8-[4-[(Carboxymethyl)oxy]phenyl]-1,3-di-(n-propyl)xanthine N,N-[(1,2-Diphenyl)maleyl]hydrazide]
1060 ± 150 nM	813 ± 299 nM	2.6	51 ± 7 nM	134 ± 19 nM	–	–	–	–	–	–	–	–	–	–	–	–	–	CCCn1c(=O)c2[nH]c(-c3ccc(OCC(=O)NNC(=O)C4CC=CCC4C(=O)O)cc3)nc2n(CCC)c1=O (stereo not drawn) [Compound 51, 8-[4-[(Carboxymethyl)oxy]phenyl]-1,3-di-(n-propyl)xanthine N-[2-((1-Carboxy)-cis-4-cyclohexene)-carbonyl]hydrazide]
1180 ± 700 nM	708 ± 169 nM	1.0	78.5 ± 20.5 nM	81.7 ± 31.2 nM	–	–	–	–	–	–	–	–	–	–	–	–	–	CCCn1c(=O)c2[nH]c(-c3ccc(OCC(=O)NNC(=O)C4=C(C(=O)O)CCC4)cc3)nc2n(CCC)c1=O [Compound 53, 8-[4-[(Carboxymethyl)oxy]phenyl]-1,3-di-(n-propyl)xanthine N-[2-((1-Carboxy)-1-cyclopentene)-carbonyl]hydrazide]
